Experimental data taken from patent US20100256098A1, “COMPOUNDS FOR INHIBITING WIP1, PRODRUGS AND COMPOSITIONS THEREOF, AND RELATED METHODS” (The United States of America, as represented by the …, priority 2007, published 2010).
Substitutions are numbered along the chain they refer to. Read-outs that look alike come from different tables or passages of the source. Each block holds one compound with its values, some of them ahead of it.

Columns and labels:
Wip1 in MCF7 cells = assay: Western blot of phospho-p38 MAPK and p38 MAPK in MCF7 cells treated with compound; format: cell-based, human; settings: DMSO negative and UV (25J/m2) positive controls
Procedure: The selectivity of three compounds in inhibiting Wip1 was tested on human breast cancer cell line MCF7 cells, the latter strongly expressing Wip1. These cells were treated with each compound, and cell lysates were collected after the indicated time point. 20 ug of total protein extracts were subjected to SDS-PAGE, and levels of phospho-p38 MAPK and p38 MAPK were examined by Western blot analysis using specific antibodies. Dimethyl sulphoxide (DMSO) and UV (25J/m2) treated cells were used as the negative and positive controls respectively.

[1] = target: T1, human Wip1 protein (rWip1, catalytic domain, residues 1-420) (Homo sapiens, UniProt O15297); assay: Wip1 phosphatase assay (malachite green/molybdate-based)
T1 sequence (O15297 1-420): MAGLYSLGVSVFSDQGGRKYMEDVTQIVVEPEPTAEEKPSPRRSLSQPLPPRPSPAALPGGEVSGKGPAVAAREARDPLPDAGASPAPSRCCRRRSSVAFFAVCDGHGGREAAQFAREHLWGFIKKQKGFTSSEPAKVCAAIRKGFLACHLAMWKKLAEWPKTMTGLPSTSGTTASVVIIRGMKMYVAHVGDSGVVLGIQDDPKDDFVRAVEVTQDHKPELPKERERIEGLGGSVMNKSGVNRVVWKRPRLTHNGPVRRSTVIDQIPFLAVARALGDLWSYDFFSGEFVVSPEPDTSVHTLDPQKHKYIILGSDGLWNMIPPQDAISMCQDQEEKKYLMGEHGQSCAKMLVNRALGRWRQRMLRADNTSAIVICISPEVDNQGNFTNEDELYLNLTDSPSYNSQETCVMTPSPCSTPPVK
Procedure: (§1) An N-terminal histidine-tagged, catalytic domain of the human Wip1 protein (amino acid residues 1-420), rWip1, and K238D mutant of Wip1 were expressed in Escherichia coli BL21 (DE3) and purified as previously reported in Yamaguchi et al., supra.
(§2) Phosphatase activity was measured by a malachite green/molybdate-based assay (see, e.g., Yamaguchi et al., Biochemistry, 44:5285-5294 (2005), Harder et al, Biochem J., 298: 395-401 (1994), and Donella-Deana et al., Methods Enzymol., 366: 3-17 (2003)). […] The inhibitors were pre-equilibrated at 30° C. for 6 min. The inhibition percentages were estimated by the following equation.
(§3) where A and A100 denote absorbance intensities at 650 nm with and without the inhibitor, respectively. A0 denotes absorbance of the sample without phosphatase. The IC50 values were estimated by a sigmoidal dose-response equation. The apparent inhibitory constant (Ki) values were estimated using the following equation (see, e.g., Cheng et al., Biochem. Pharmacol., 22: 3099-3108 (1973)):

PP2Cα = target: T2, PP2Cα (Homo sapiens, UniProt P35813); assay: Phosphatase assay with PP2Cα; settings: for Ki: read-out: Ki (μM) PP2Cα, Table 2, NI = no inhibition observed
T2 sequence (P35813 1-382): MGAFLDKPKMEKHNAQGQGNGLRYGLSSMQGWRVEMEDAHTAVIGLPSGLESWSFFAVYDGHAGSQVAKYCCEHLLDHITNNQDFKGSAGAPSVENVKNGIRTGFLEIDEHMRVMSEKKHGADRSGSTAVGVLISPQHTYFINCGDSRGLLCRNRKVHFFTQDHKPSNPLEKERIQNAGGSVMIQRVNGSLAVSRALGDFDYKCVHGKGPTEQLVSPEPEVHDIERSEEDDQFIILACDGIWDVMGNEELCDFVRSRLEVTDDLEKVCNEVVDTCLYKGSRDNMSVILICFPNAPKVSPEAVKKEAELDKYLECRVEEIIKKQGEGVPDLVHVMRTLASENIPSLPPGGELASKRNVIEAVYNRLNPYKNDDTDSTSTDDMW
Procedure: (§4) The inhibitors were pre-equilibrated at 30° C. for 6 min. The inhibition percentages were estimated by the following equation.
as §3
(§5) wherein [S] is the concentration of the substrate peptide and Km is the Michaelis constant.
(§6) The selectivity of the compounds was determined. Certain compounds were tested to determine their selectivity in inhibiting Wip1, PP2Cα, and a K238D mutant of Wip1 according to the methods described above.

[2] = system: human Wip1 protein (rWip1, catalytic domain, residues 1-420); assay: Wip1 phosphatase assay (malachite green/molybdate-based); settings: versus K238D mutant and PP2Cα
Procedure: as §1, §2, §3

Wip1(K238D) = target: T3, Wip1(K238D) (Homo sapiens, UniProt O15297, K238D); assay: Phosphatase assay with the K238D mutant of Wip1; settings: for Ki: read-out: Ki (μM) Wip1(K238D), Table 2, K238D mutant of Wip1, NI = no inhibition observed
T3 sequence (O15297 1-420 K238D): T1 sequence (O15297 1-420) with K238D
Procedure: as §4, §3, §5, §6

Structure (SMILES): CCCCC(CCCC)Cc1c(-c2ccc(OP(=O)(OCCSC(=O)C(C)(C)C)Oc3ccccc3)c(Cl)c2)c(C(=O)O)c(Cc2ccc(Cl)cc2)n1CCCOP(=O)(OCCSC(=O)C(C)(C)C)Oc1ccccc1 (stereo not drawn) [Compound 1A]
effectiveness in inhibiting Wip1 (levels of phospho-p38 MAPK) (Wip1 in MCF7 cells): effective

Ki [1]: 16 ± 2 µM
Structure (SMILES): CCCC(C)Cc1c(-c2ccc(OP(=O)(O)O)c(Cl)c2)c(C(N)=O)c(Cc2ccc(F)cc2)n1CCCOP(=O)(O)O (stereo not drawn) [Compound 23]

Ki [1]: 22 ± 1 µM
Structure (SMILES): CC(C)Cc1c(-c2ccc(OP(=O)(O)O)c(Cl)c2)c(C(N)=O)c(Cc2ccc(Cl)cc2)n1CCCOP(=O)(O)O [Compound 21]

Structure (SMILES): CCCC(C)Cc1c(-c2ccc(OP(=O)(O)O)c(Cl)c2)c(C(=O)NCCC(N)=O)c(C)n1CCCOP(=O)(O)O (stereo not drawn) [Compound 12]
Ki ([1]; pH 7.5): > 100 µM

Structure (SMILES): CCCc1c(-c2ccc(OP(=O)(O)O)cc2)c(C(N)=O)c(C)n1CCOP(=O)(O)O [Compound 2]
Ki ([1]; pH 7.5): > 100 µM

Ki [1]: 22 ± 2 µM
Structure (SMILES): CCCC(C)Cc1c(-c2ccc(OP(=O)(O)O)c(Cl)c2)c(C(=O)NC(CC(C)C)C(N)=O)c(C)n1CCCOP(=O)(O)O (stereo not drawn) [Compound 13]

Structure (SMILES): CCC[C@H](C)Cc1c(-c2ccc(OP(=O)(O)O)c(Cl)c2)c(C(N)=O)c(CCc2ccc(Cl)cc2)n1CCCOP(=O)(O)O [Compound 25]
inhibition of PP2Cα (PP2Cα): no inhibition
Ki (PP2Cα): > 100 µM
selectivity for Wip1 [2]: highly selective
Ki [1]: 4.7 ± 0.7 µM
inhibition of the K238D mutant (Wip1(K238D)): no inhibition
Ki (Wip1(K238D)): > 100 µM

Ki [1]: 28 ± 1 µM
Structure (SMILES): Cc1c(C(N)=O)c(-c2ccc(OP(=O)(O)O)c(Cl)c2)c(CC(C)C)n1CCCOP(=O)(O)O [Compound 10]

Ki [1]: 61 ± 15 µM
Structure (SMILES): CCCC(C)Cc1c(-c2ccc(OP(=O)(O)O)cc2)c(C(N)=O)c(C)n1CCOP(=O)(O)O (stereo not drawn) [Compound 3]

Ki [1]: 48 ± 5 µM
Structure (SMILES): CCCC(C)Cc1c(-c2ccc(OP(=O)(O)O)cc2)c(C(N)=O)c(CC(C)C)n1CCCOP(=O)(O)O (stereo not drawn) [Compound 15]

Ki [1]: 40 ± 1 µM
Structure (SMILES): CCCC(C)Cc1c(-c2ccc(OP(=O)(O)O)c(Cl)c2)c(C(N)=O)c(C)n1CCOP(=O)(O)O (stereo not drawn) [Compound 7]

Structure (SMILES): CCc1c(-c2ccc(OP(=O)(O)O)cc2)c(C(N)=O)c(C)n1CCOP(=O)(O)O [Compound 1]
Ki ([1]; pH 7.5): > 100 µM

Structure (SMILES): CCCC(C)Cc1c(-c2ccc(OP(=O)(O)O)c(Cl)c2)c(C(N)=O)c(CCc2ccc(Cl)cc2)n1CCCOP(=O)(O)O (stereo not drawn) [Compound 24]
inhibition of PP2Cα (PP2Cα): no inhibition
Ki (PP2Cα): > 100 µM
selectivity for Wip1 [2]: highly selective
Ki [1]: 5.7 ± 0.4 µM
inhibition of the K238D mutant (Wip1(K238D)): no inhibition
Ki (Wip1(K238D)): > 100 µM

Ki [1]: 22 ± 3 µM
Structure (SMILES): CCCC(C)Cc1c(-c2ccc(OP(=O)(O)O)cc2)c(C(N)=O)c(C)n1CCCOP(=O)(O)O (stereo not drawn) [Compound 9]

Ki [1]: 77 ± 12 µM
Structure (SMILES): CCCCCc1c(-c2ccc(OP(=O)(O)O)c(Cl)c2)c(C(N)=O)c(C)n1CCOP(=O)(O)O [Compound 5]

Ki [1]: 15 ± 1 µM
Structure (SMILES): CCCC(C)Cc1c(-c2ccc(OP(=O)(O)O)c(Cl)c2)c(C(N)=O)c(CCc2ccccc2)n1CCCOP(=O)(O)O (stereo not drawn) [Compound 18]

Ki [1]: 38 ± 8 µM
Structure (SMILES): Cc1c(C(N)=O)c(-c2ccc(OP(=O)(O)O)c(Cl)c2)c(CC(C)C)n1CCOP(=O)(O)O [Compound 6]

Structure (SMILES): CCC[C@@H](C)Cc1c(-c2ccc(OP(=O)(O)O)c(Cl)c2)c(C(N)=O)c(CCc2ccc(Cl)cc2)n1CCCOP(=O)(O)O [Compound 26]
inhibition of PP2Cα (PP2Cα): no inhibition
Ki (PP2Cα): > 100 µM
selectivity for Wip1 [2]: highly selective
Ki [1]: 10 ± 1 µM
inhibition of the K238D mutant (Wip1(K238D)): no inhibition
Ki (Wip1(K238D)): > 100 µM

Structure (SMILES): CCCC(C)Cc1c(-c2ccc(OP(=O)(O)O)c(Cl)c2)c(C(N)=O)c(C)n1CCCCOP(=O)(O)O (stereo not drawn) [Compound 11]
Ki ([1]; pH 7.5): > 100 µM

Ki [1]: 81 ± 5 µM
Structure (SMILES): Cc1c(C(N)=O)c(-c2ccc(OP(=O)(O)O)cc2)c(CC2CCCCC2)n1CCOP(=O)(O)O [Compound 4]

Structure (SMILES): CCCCC(C)c1c(C(N)=O)c(-c2ccc(OP(=O)(O)O)c(Cl)c2)c(C)n1CCCOP(=O)(O)O (stereo not drawn) [Compound 14]
Ki ([1]; pH 7.5): > 100 µM
